Assay results from ChEMBL document CHEMBL3044707, “Synthesis of some new glutamine linked 2,3-disubstituted quinazolinone derivatives as potent antimicrobial and antioxidant agents” (Med Chem Res, 2013).
Values after ≈ are worked out from the molar mass of the structure shown.

Experiments:
Type in all cases: functional
Aspergillus flavus [1] = assay: Antimicrobial activity against Aspergillus flavus NCIM 524 assessed as diameter of growth inhibition zone at 100 ug/ml after 48 hr by paper disk diffusion method; settings: NCIM 524, 48 h, read-out: DIZ
Bacillus subtilis [2] = assay: Antimicrobial activity against Bacillus subtilis NCIM 2999 assessed as diameter of growth inhibition zone at 100 ug/ml after 24 hr by paper disk diffusion method; settings: NCIM 2999, 24 h, read-out: DIZ
Escherichia coli [3] = assay: Antimicrobial activity against Escherichia coli NCIM 2574 assessed as diameter of growth inhibition zone at 100 ug/ml after 24 hr by paper disk diffusion method; settings: NCIM 2574, 24 h, read-out: DIZ
Pseudomonas aeruginosa [4] = assay: Antimicrobial activity against Pseudomonas aeruginosa NCIM 5029 assessed as diameter of growth inhibition zone at 100 ug/ml after 24 hr by paper disk diffusion method; settings: NCIM 5029, 24 h, read-out: DIZ
Staphylococcus aureus [5] = assay: Antimicrobial activity against Staphylococcus aureus NCIM 5021 assessed as diameter of growth inhibition zone at 100 ug/ml after 24 hr by paper disk diffusion method; settings: NCIM 5021, 24 h, read-out: DIZ
Candida albicans [6] = assay: Antimicrobial activity against Candida albicans NCIM 3102 assessed as diameter of growth inhibition zone at 100 ug/ml after 48 hr by paper disk diffusion method; settings: NCIM 3102, 48 h, read-out: DIZ
Bacillus subtilis [7] = assay: Antimicrobial activity against Bacillus subtilis NCIM 2999 assessed as growth inhibition by agar streak dilution method
Escherichia coli [8] = assay: Antimicrobial activity against Escherichia coli NCIM 2574 assessed as growth inhibition by agar streak dilution method
Pseudomonas aeruginosa [9] = assay: Antimicrobial activity against Pseudomonas aeruginosa NCIM 5029 assessed as growth inhibition by agar streak dilution method
Staphylococcus aureus [10] = assay: Antimicrobial activity against Staphylococcus aureus NCIM 5021 assessed as growth inhibition by agar streak dilution method
[11] = Antioxidant activity assessed as inhibition of xanthine-xanthine oxidase generated superoxide anion radical-mediated NBT reduction by spectrophotometric analysis
[12] = Antioxidant activity assessed as inhibition of Fe3+/ascorbic acid-induced hydroxyl radical production-mediated 2-deoxyribose degradation after 1 hr
[13] = tested on: Radical scavenging activity; assay: Antioxidant activity assessed as DPPH radical scavenging activity by visible spectrophotometric analysis
Aspergillus flavus [14] = assay: Antimicrobial activity against Aspergillus flavus NCIM 524 assessed as growth inhibition by agar streak dilution method
Candida albicans [15] = assay: Antimicrobial activity against Candida albicans NCIM 3102 assessed as growth inhibition by agar streak dilution method
[16] = Antioxidant activity assessed as inhibition of NO radical production from sodium nitroprusside after 150 min by Griess reagent analysis

| SMILES | MIC (Bacillus subtilis [7]) | MIC (Escherichia coli [8]) | MIC (Pseudomonas aeruginosa [9]) | MIC (Staphylococcus aureus [10]) | IC50 [11] | IC50 [12] | IC50 [13] | MIC (Aspergillus flavus [14]) | MIC (Candida albicans [15]) | IC50 [16] | zone of inhibition at 100 µg/mL (Aspergillus flavus [1]) | zone of inhibition at 100 µg/mL (Bacillus subtilis [2]) | zone of inhibition at 100 µg/mL (Escherichia coli [3]) | zone of inhibition at 100 µg/mL (Pseudomonas aeruginosa [4]) | zone of inhibition at 100 µg/mL (Staphylococcus aureus [5]) | zone of inhibition at 100 µg/mL (Candida albicans [6]) |
| --- | --- | --- | --- | --- | --- | --- | --- | --- | --- | --- | --- | --- | --- | --- | --- | --- |
| NC(CCC(=O)n1c(-c2cc(F)cc(F)c2)nc2ccccc2c1=O)C(=O)O (stereo not given) | 15 µg/mL (≈ 38.7 µM) | 50 µg/mL (≈ 129 µM) | 25 µg/mL (≈ 64.5 µM) | 13 µg/mL (≈ 33.6 µM) | 45.7 µg/mL (≈ 118 µM) | 38.1 µg/mL (≈ 98.4 µM) | 27.4 µg/mL (≈ 70.7 µM) | 25 µg/mL (≈ 64.5 µM) | 15 µg/mL (≈ 38.7 µM) | – | 10.4 mm | 16 mm | 12 mm | 14 mm | 11 mm | 11 mm |
| NC(CCC(=O)n1c(-c2ccc(F)c(F)c2F)nc2ccccc2c1=O)C(=O)O (stereo not given) | 8 µg/mL (≈ 19.7 µM) | 12 µg/mL (≈ 29.6 µM) | 10 µg/mL (≈ 24.7 µM) | 8 µg/mL (≈ 19.7 µM) | 48.2 µg/mL (≈ 119 µM) | 55.1 µg/mL (≈ 136 µM) | 29.7 µg/mL (≈ 73.3 µM) | 15 µg/mL (≈ 37 µM) | 10 µg/mL (≈ 24.7 µM) | – | 14.4 mm | 13.5 mm | 12.7 mm | 14.8 mm | 13.2 mm | 13.6 mm |
| NC(CCC(=O)n1c(OCc2ccccc2Cl)nc2ccccc2c1=O)C(=O)O (stereo not given) | 50 µg/mL (≈ 120 µM) | 50 µg/mL (≈ 120 µM) | 50 µg/mL (≈ 120 µM) | 30 µg/mL (≈ 72.1 µM) | 31.4 µg/mL (≈ 75.5 µM) | 27.7 µg/mL (≈ 66.6 µM) | 26.1 µg/mL (≈ 62.8 µM) | 40 µg/mL (≈ 96.2 µM) | 25 µg/mL (≈ 60.1 µM) | 38.7 µg/mL (≈ 93.1 µM) | 11 mm | 14 mm | 10 mm | 13 mm | 12 mm | 13.7 mm |
| NC(CCC(=O)n1c(-c2ccc([N+](=O)[O-])cc2)nc2ccccc2c1=O)C(=O)O (stereo not given) | 12.5 µg/mL (≈ 31.5 µM) | 25 µg/mL (≈ 63.1 µM) | 25 µg/mL (≈ 63.1 µM) | 9.6 µg/mL (≈ 24.2 µM) | – | 39 µg/mL (≈ 98.4 µM) | 36.4 µg/mL (≈ 91.8 µM) | 12.5 µg/mL (≈ 31.5 µM) | 10 µg/mL (≈ 25.2 µM) | 49 µg/mL (≈ 124 µM) | 13.6 mm | 16 mm | 9 mm | 11 mm | 14 mm | 14.1 mm |
| O=C1O[C@H]([C@@H](O)CO)C(O)=C1O [ASCORBIC ACID] | – | – | – | – | – | – | 12.6 µg/mL (≈ 71.5 µM) | – | – | – | – | – | – | – | – | – |

Further lines, with some results ahead:

| MIC (Bacillus subtilis [7]) | MIC (Escherichia coli [8]) | MIC (Pseudomonas aeruginosa [9]) | MIC (Staphylococcus aureus [10]) | IC50 [11] | IC50 [12] | IC50 [13] | MIC (Aspergillus flavus [14]) | MIC (Candida albicans [15]) | IC50 [16] | SMILES | zone of inhibition at 100 µg/mL (Aspergillus flavus [1]) | zone of inhibition at 100 µg/mL (Bacillus subtilis [2]) | zone of inhibition at 100 µg/mL (Escherichia coli [3]) | zone of inhibition at 100 µg/mL (Pseudomonas aeruginosa [4]) | zone of inhibition at 100 µg/mL (Staphylococcus aureus [5]) | zone of inhibition at 100 µg/mL (Candida albicans [6]) |
| --- | --- | --- | --- | --- | --- | --- | --- | --- | --- | --- | --- | --- | --- | --- | --- | --- |
| 12.5 µg/mL (≈ 32.3 µM) | 30 µg/mL (≈ 77.5 µM) | 35 µg/mL (≈ 90.4 µM) | 12.5 µg/mL (≈ 32.3 µM) | 50.8 µg/mL (≈ 131 µM) | 41.8 µg/mL (≈ 108 µM) | 34.9 µg/mL (≈ 90.1 µM) | 15 µg/mL (≈ 38.7 µM) | 10 µg/mL (≈ 25.8 µM) | – | NC(CCC(=O)n1c(-c2cc(F)ccc2F)nc2ccccc2c1=O)C(=O)O (stereo not given) | 10.9 mm | 12 mm | 11 mm | 17 mm | 14 mm | 11.4 mm |
| 30 µg/mL (≈ 81.9 µM) | 50 µg/mL (≈ 136 µM) | 50 µg/mL (≈ 136 µM) | 25 µg/mL (≈ 68.2 µM) | – | 18 µg/mL (≈ 49.1 µM) | 17.5 µg/mL (≈ 47.8 µM) | 50 µg/mL (≈ 136 µM) | 50 µg/mL (≈ 136 µM) | 19.4 µg/mL (≈ 53 µM) | Nc1ccc(-c2nc3ccccc3c(=O)n2C(=O)CCC(N)C(=O)O)cc1 (stereo not given) | 11 mm | 13 mm | 15 mm | 16 mm | 10 mm | 12.5 mm |
| 50 µg/mL (≈ 142 µM) | 50 µg/mL (≈ 142 µM) | 75 µg/mL (≈ 213 µM) | 45 µg/mL (≈ 128 µM) | – | 31.2 µg/mL (≈ 88.8 µM) | 29.7 µg/mL (≈ 84.5 µM) | 25 µg/mL (≈ 71.2 µM) | 30 µg/mL (≈ 85.4 µM) | 36 µg/mL (≈ 102 µM) | NC(CCC(=O)n1c(-c2ccccc2)nc2ccccc2c1=O)C(=O)O (stereo not given) | 10 mm | 11 mm | 15 mm | 12 mm | 11 mm | 14 mm |
| 30 µg/mL (≈ 82.1 µM) | 50 µg/mL (≈ 137 µM) | 30 µg/mL (≈ 82.1 µM) | 50 µg/mL (≈ 137 µM) | – | 30.4 µg/mL (≈ 83.2 µM) | 24.9 µg/mL (≈ 68.1 µM) | 25 µg/mL (≈ 68.4 µM) | 25 µg/mL (≈ 68.4 µM) | 29.1 µg/mL (≈ 79.6 µM) | Cc1ccccc1-c1nc2ccccc2c(=O)n1C(=O)CCC(N)C(=O)O (stereo not given) | 15 mm | 12 mm | 10 mm | 11 mm | 11 mm | 12 mm |
| 50 µg/mL (≈ 131 µM) | 20 µg/mL (≈ 52.4 µM) | 25 µg/mL (≈ 65.6 µM) | 30 µg/mL (≈ 78.7 µM) | 20.1 µg/mL (≈ 52.7 µM) | 23.4 µg/mL (≈ 61.4 µM) | 18.4 µg/mL (≈ 48.2 µM) | 15 µg/mL (≈ 39.3 µM) | 25 µg/mL (≈ 65.6 µM) | 20.1 µg/mL (≈ 52.7 µM) | COc1ccc(-c2nc3ccccc3c(=O)n2C(=O)CCC(N)C(=O)O)cc1 (stereo not given) | 14 mm | 10 mm | 11 mm | 13 mm | 14 mm | 10 mm |
| 50 µg/mL (≈ 137 µM) | > 100 µg/mL | > 100 µg/mL | 50 µg/mL (≈ 137 µM) | 31.6 µg/mL (≈ 86.5 µM) | 29.8 µg/mL (≈ 81.6 µM) | 26.6 µg/mL (≈ 72.8 µM) | 75 µg/mL (≈ 205 µM) | 100 µg/mL (≈ 274 µM) | 36.2 µg/mL (≈ 99.1 µM) | NC(CCC(=O)n1c(Cc2ccccc2)nc2ccccc2c1=O)C(=O)O (stereo not given) | 10.2 mm | 7 mm | 11 mm | 11 mm | 10 mm | 14 mm |
| 25 µg/mL (≈ 68.1 µM) | 50 µg/mL (≈ 136 µM) | 50 µg/mL (≈ 136 µM) | 25 µg/mL (≈ 68.1 µM) | 15.2 µg/mL (≈ 41.4 µM) | 17.8 µg/mL (≈ 48.5 µM) | 14.3 µg/mL (≈ 38.9 µM) | 40 µg/mL (≈ 109 µM) | 40 µg/mL (≈ 109 µM) | 15.2 µg/mL (≈ 41.4 µM) | NC(CCC(=O)n1c(-c2ccc(O)cc2)nc2ccccc2c1=O)C(=O)O (stereo not given) | 15 mm | 9 mm | 15 mm | 13 mm | 13 mm | 9 mm |
